Data from US20230014782A1, “NEW SOLID STATE FORM OF LURBINECTEDIN” (PHARMA MAR, S.A., priority 2019, published 2023).

What was measured:
[1] = Maximum solubility of lurbinectedin in different molarities of lactic acid; type: physicochemical
Experimental: As such, in embodiments, a concentrated lurbinectedin solution is prepared in organic acid before addition of other excipients. In preferred embodiments, the organic acid has a pH less than 4, preferably less than 3.5, more preferably less than 3, or around 3. The maximum solubility of lurbinectedin was investigated in different molarities of the organic acid lactic acid. […] In a preferred embodiment, lurbinectedin is dissolved in an organic acid with a molarity of around 0.1 M to 0.5 M, preferably around 0.2 M to 0.4 M, more preferably around 0.3 M organic acid. An exemplary molarity is 0.31 M organic acid.

[2] = tested on: solid and non-solid tumour cell lines; conditions: cited from earlier work
[3] = tested on: xenografted human tumor cell lines; conditions: xenografts in mice, such as breast, kidney and ovarian cancer; cited from earlier work
[4] = Mixing of the concentrated lurbinectedin solution with buffer solution, precipitation; type: physicochemical; conditions: high concentration lurbinectedin solution (8.3 mg/mL in 0.1M lactic acid)
Experimental: In embodiments, a multi-step compounding strategy is used to prepare lurbinectedin. Step 1 is the pre-dissolution step described above, for example: pre-dissolving partly crystalline lurbinectedin in lactic acid 0.31M at 25 mg/mL and diluting 3× with WFI to obtain the concentrated solution at 8.3 mg/mL in 0.1M lactic acid. To avoid precipitation of lurbinectedin, the remaining excipients should have acid pH when added to the compounding formulation. […] As such, in Step 2, an organic buffer solution containing the bulking agent (eg disaccharide) may be prepared at suitable pH. By way of example, this may comprise the preparation of a 0.04 M sodium lactate buffer at pH of around 4.2 containing sucrose. In step 3, the solutions from step 1 and step 2 are combined to form the final bulk solution. The final bulk solution may be adjusted with WFI to achieve the final target weight. By way of example, in step 3, the 8.3 mg/mL lurbinectedin concentrated solution in 0.1M lactic acid with pH≈3 is diluted with 0.04M sodium lactate buffer pH≈4.2 containing sucrose. The final bulk solution composition after adjustment of WFI to final weight may be, by way of example, 0.5 mg/mL lurbinectedin in 0.03M sodium lactate buffer pH=4+10% (w/v) sucrose. The present invention therefore identifies a compounding strategy to formulate partially crystalline lurbinectedin.

[5] = Electrostatic charge measurements with a Faraday cage; type: physicochemical; conditions: for Dispersion of charge density (Q/m) / Average charge density (Q/m): Faraday cage, dry nitrogen, ranges with 95% confidence; for Average charge density (Q/m): slope of lineal regression of charge vs mass
Excerpt: The electrostatic charges of two batches of form A of lurbinectedin (Batches P04 and R05) and of form B of lurbinectedin (Batch 1924129-LT and 1924128-LT) have been measured using a Faraday cage (See FIG. 8) constructed of stainless steel with concentric spheres with ratios 10, 15 and 20 cm.
This technique consists in placing the sample to be measured (q) in the interior of the inner sphere (a) and measuring the difference of potential induced between sphere (a) and another conductor of reference, sphere (b). The external sphere (c) is grounded in order to shield the system. The measurements of the difference of potential were carried out with a precision electrometer (Keithley 617, resolution 10fC.
Measurements were carried out under controlled atmosphere of dry nitrogen in order to avoid the effect of ambient humidity on the electrostatic charge of the samples.
Samples were introduced in glass capsules using non-conductor instrumental to avoid loses of electrostatic charge.
The capsules loaded with the samples were introduced in the Faraday cage through a grounded conductor tube to avoid parasitic static charges in the glass capsule. The entry and removal of the capsules was done with a computer-controlled servo engine, in order to ensure a constant rate of introduction and removal of the capsules in each measurement to minimize the creation of static charges due to friction of the insulator elements.
Several measurements with different amounts of material were carried out for each batch of each form of lurbinectedin. Before loading the capsules, they were washed and their remaining static charge was measured in order to correct the levels. Each sample was introduced and removed five times and, after each introduction, several consecutive measurements were taken in order to average any possible drift effect. FIGS. 9a and 9b summarized the results of such measurement for each pair of batches of forms A and B of lurbinectedin.
The measured charge Q increases with the amount of analyzed material. Both forms of lurbinectedin have a positive electrostatic charge. […] The data was fitted by lineal regression (dashed lines in FIGS. 9a and 9b) to obtain the charge density (Q/m) as the slope of the line. […] All ranges are given with a 95% confidence.

[6] = Direct dissolution of lurbinectedin in sodium lactate buffer (dissolution kinetics); type: physicochemical
Experimental: In embodiments, the lurbinectedin to be dissolved is at least partially crystalline. The lurbinectedin to be dissolved may be in the solid state form(s) described herein. […] By way of example, while the direct dissolution of amorphous lurbinectedin at 0.5 mg/mL in 0.03 M sodium lactate buffer pH 4 was completed in approximately 30 minutes, partly crystalline lurbinectedin reached only 60-70% of the target concentration in 2 hours, meaning that it had much slower dissolution kinetics.

[7] = TG-FTIR thermal degradation; type: physicochemical; conditions: N2 atmosphere, 25-250° C., 10° C./min
Experimental: TG-FTIR experiments were conducted with a Thermo-Microbalance TG-209 (Netzsch) equipped with a FT-IR Spectrometer Vector 22 (Bruker) using Al crucible (open or with microhole) under N2 atmosphere with a heating range between 25 and 250° C. and a heating rate of 10° C./min.
TG-FTIR indicates degradation above 150° C. for form B of lurbinectedin. A release of 2.6% of water was detected.

DSC thermal degradation = type: physicochemical; conditions: closed Au crucibles, -50 to 250° C.
Experimental: DSC experiments were carried out with a Perkin Elmer DSC 7 using closed Au crucibles with a heating range between −50 to 250° C. and a heating rate of 10 or 20° C./min.
Estimation of the amorphous content by DSC was not possible. […] A glass transition temperature or melting point was not detected.

[8] = Dynamic vapor sorption (DVS); type: physicochemical
Experimental: DVS experiments were carried out with a Projekt Messtechnik SPS 11-100n multi-sample water vapor sorption analyzer. The sample was allowed to equilibrate at 50% r.h. before starting a pre-defined humidity program. The program was: • 2 h at 50% r.h. • 50 to 0% r.h. […]
DVS indicates a continuous water uptake and release with no steps and almost no hysteresis. […] Upon lowering the relative humidity again, the water content decreased and nearly returned to the original mass, see FIG. 5.

**Q.** For lurbinectedin, which Maximum solubility ([1]; 0.05 M lactic acid) is on record?
**A.** 7.2 mg/mL

**Q.** What about the Maximum solubility ([1]; 0.5 M lactic acid) of the same substance?
**A.** 90.4 mg/mL

**Q.** And the In vitro activity [2]?
**A.** highly potent

**Q.** What about the In vivo activity [3] of the same substance?
**A.** significant

**Q.** And the “pH of buffer solution that can be mixed without precipitation of lurbinectedin” value [4]?
**A.** ≤ 5.6

**Q.** Which “Total static charge relative to form B” value [5] does the source give for lurbinectedin [form A of lurbinectedin] here?
**A.** considerably higher

**Q.** And the “Dispersion of charge density (Q/m)” value ([5]; listed as P04)?
**A.** 7.6 ± 2.8 nC/g

**Q.** And the “Dispersion of charge density (Q/m)” value ([5]; listed as R05)?
**A.** 15.23 ± 5.64 nC/g

**Q.** What about the “Average charge density (Q/m)” value ([5]; listed as P04) of the same substance?
**A.** 43.1 ± 3.86 nC/g

**Q.** What about the “Average charge density (Q/m)” value ([5]; listed as R05) of the same substance?
**A.** 64.02 ± 7.98 nC/g

**Q.** What about the “Time to complete direct dissolution” value ([6]; 0.5 mg/mL in 0.03 M sodium lactate buffer pH 4) of the same substance?
**A.** approximately 30 minutes

**Q.** What does the source list for lurbinectedin [form B of lurbinectedin]?
**A.** Degradation temperature (TG-FTIR) [7]: above 150 °C; Temperature at which degradation begins (DSC) (DSC thermal degradation): above 130 °C; Dispersion of charge density (Q/m) ([5]; listed as 1924128-LT): 1.01 ± 0.3 nC/g; Dispersion of charge density (Q/m) ([5]; listed as 1924129-LT): 3.4 ± 1.4 nC/g; Average charge density (Q/m) ([5]; listed as 1924128-LT): 4.3 ± 0.4 nC/g; Average charge density (Q/m) ([5]; listed as 1924129-LT): 4.96 ± 2.0 nC/g; Average charge density relative to form A ([5]; two different batches of each form): one order of magnitude lower; Deliquescence (DVS) [8]: not deliquescent; Hygroscopicity (DVS) [8]: hygroscopic; Mass change Δm (water uptake, DVS) ([8]; 50 to 96% r.h.): ≈ 4%; Fraction of target concentration reached ([6]; target 0.5 mg/mL in 0.03 M sodium lactate buffer pH 4, in 2 hours): 60-70%
